Assay results: patent US7144991B2, “Streptavidin expressed gene fusions and methods of use thereof” (Aletheon Pharmaceuticals, Inc., priority 1999, dated 2006)
“And” between values parts separate entries of the source, which are not always exact repeats. Equal entries are not always repeated.

Assay: Biotin binding capacity
Conditions: 9-fold molar excess of [3H]biotin
Method: (§1) Biotin Binding and Dissociation. Biotin binding capacity was determined by incubation of a known quantity of fusion protein with a 9-fold molar excess of [3H]biotin (NEN Research Products, Boston, Mass.). After removal of uncomplexed biotin using streptavidin-immobilized beads (Pierce Chemical; Rockford, Ill.), the amount of [^3H]biotin associated with the fusion protein was determined.
as §1, with “Capacity.” for “and Dissociation.”, “[^3H]biotin” for “[3H]biotin”

Biotin binding capacity (average biotins bound): 4 biotins and 4.0 biotins
Substance: recombinant streptavidin: recombinant streptavidin (Roche Biochemical), control in biotin binding and dissociation
